Experimental data taken from PMC10967972, “Different Coactivator Recruitment to Human PPARα/δ/γ Ligand-Binding Domains by Eight PPAR Agonists to Treat Nonalcoholic Fatty Liver Disease” (Biomedicines, 2024).
Read-outs that look alike come from different tables or passages of the source.

How the values were obtained:
Assay type in all cases: biochemical
human PPARδ-LBD = molecular target: T1, human PPARδ-LBD (Homo sapiens, UniProt Q03181); test: TR-FRET coactivator recruitment assay, PPARδ-LBD
T1 construct: PPARδ-LBD (AAs 170–441); made in house
T1 sequence (Q03181 170-441): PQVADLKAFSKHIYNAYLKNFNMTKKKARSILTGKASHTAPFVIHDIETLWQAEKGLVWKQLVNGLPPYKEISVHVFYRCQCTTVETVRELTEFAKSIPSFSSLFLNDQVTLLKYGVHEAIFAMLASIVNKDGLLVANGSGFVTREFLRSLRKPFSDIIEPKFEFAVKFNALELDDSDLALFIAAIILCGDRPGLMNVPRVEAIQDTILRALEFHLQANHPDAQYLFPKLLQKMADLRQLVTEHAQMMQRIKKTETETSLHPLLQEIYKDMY

human PPARγ-LBD = molecular target: T2, human PPARγ-LBD (Homo sapiens, UniProt P37231); test: TR-FRET coactivator recruitment assay, PPARγ-LBD
T2 construct: PPARγ-LBD (AAs 203–477 in isoform 1); made in house
T2 sequence (P37231 203-477 isoform P37231-2): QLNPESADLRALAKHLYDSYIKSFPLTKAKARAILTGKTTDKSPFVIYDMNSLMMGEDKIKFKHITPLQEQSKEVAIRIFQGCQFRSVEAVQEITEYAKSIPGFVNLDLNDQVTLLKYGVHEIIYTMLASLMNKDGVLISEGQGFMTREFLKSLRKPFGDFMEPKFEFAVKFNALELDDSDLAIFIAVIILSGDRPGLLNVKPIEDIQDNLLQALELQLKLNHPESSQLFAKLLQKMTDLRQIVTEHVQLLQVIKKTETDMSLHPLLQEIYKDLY

human PPARα-LBD = molecular target: T3, human PPARα-LBD (Homo sapiens, UniProt Q07869); test: TR-FRET coactivator recruitment assay, PPARα-LBD; set-up: extent of recruitment of all four coactivators to PPARα-LBD: reference not given here; conditions: for Approximate potency order in the recruitment of four coactivators, PPARα: evaluated based on EC50 values, PGC, PGC1α, SRC, SRC1, TRAP, TRAP220; for EC50: Buffer A
T3 construct: Human PPARα-LBD [amino acids (AAs) 200–468]; made in house
T3 sequence (Q07869 200-468): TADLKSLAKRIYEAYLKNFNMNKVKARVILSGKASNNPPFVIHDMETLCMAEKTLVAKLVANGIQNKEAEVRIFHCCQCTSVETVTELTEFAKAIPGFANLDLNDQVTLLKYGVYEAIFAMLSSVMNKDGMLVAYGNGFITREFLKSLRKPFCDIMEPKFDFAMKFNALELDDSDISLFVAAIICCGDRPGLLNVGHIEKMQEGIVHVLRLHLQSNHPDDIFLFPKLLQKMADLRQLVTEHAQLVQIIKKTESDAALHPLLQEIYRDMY

[1] = read-out: PPARδ CBP % of GW501516 max response
[2] = read-out: PPARδ PGC1α % of GW501516 max response
[3] = read-out: PPARδ SRC1 % of GW501516 max response
[4] = read-out: PPARδ TRAP220 % of GW501516 max response
[5] = read-out: PPARγ CBP % of GW1929 max response
[6] = read-out: PPARγ PGC1α % of GW1929 max response
[7] = read-out: PPARγ SRC1 % of GW1929 max response
[8] = read-out: PPARγ TRAP220 % of GW1929 max response
[9] = read-out: PPARα CBP % of GW7647 max response
[10] = read-out: PPARα PGC1α % of GW7647 max response
[11] = read-out: PPARα SRC1 % of GW7647 max response
[12] = read-out: PPARα TRAP220 % of GW7647 max response
[13] = evaluated based on EC50 values, PGC, PGC1α, SRC, SRC1, TRAP, TRAP220
[14] = CBP peptide recruitment, Buffer A, read-out: PPARγ CBP EC50
[15] = PGC1α peptide recruitment, Buffer A, read-out: PPARγ PGC1α EC50
[16] = SRC1 peptide recruitment, Buffer A, read-out: PPARγ SRC1 EC50
[17] = TRAP220 peptide recruitment, Buffer A, read-out: PPARγ TRAP220 EC50
[18] = CBP peptide recruitment, read-out: PPARα CBP EC50
[19] = PGC1α peptide recruitment, read-out: PPARα PGC1α EC50
[20] = SRC1 peptide recruitment, read-out: PPARα SRC1 EC50
[21] = TRAP220 peptide recruitment, read-out: PPARα TRAP220 EC50
[22] = CBP peptide recruitment, Buffer A, read-out: PPARδ CBP EC50
[23] = PGC1α peptide recruitment, Buffer A, read-out: PPARδ PGC1α EC50
[24] = SRC1 peptide recruitment, Buffer A, read-out: PPARδ SRC1 EC50
[25] = TRAP220 peptide recruitment, Buffer A, read-out: PPARδ TRAP220 EC50

Emax (human PPARδ-LBD; [1]) [%] | Emax (human PPARδ-LBD; [2]) [%] | Emax (human PPARδ-LBD; [3]) [%] | Emax (human PPARδ-LBD; [4]) [%] | Emax (human PPARγ-LBD; [5]) [%] | Emax (human PPARγ-LBD; [6]) [%] | Emax (human PPARγ-LBD; [7]) [%] | Emax (human PPARγ-LBD; [8]) [%] | Approximate potency order in the recruitment of four coactivators, PPARα (human PPARα-LBD) | Emax (human PPARα-LBD; [9]) [%] | Emax (human PPARα-LBD; [10]) [%] | Emax (human PPARα-LBD; [11]) [%] | Emax (human PPARα-LBD; [12]) [%] | Approximate potency order in the recruitment of four coactivators, PPARδ (human PPARδ-LBD; [13]) | recruitment of coactivators to PPARδ-LBD (in words) (human PPARδ-LBD; four coactivator peptides) | Approximate potency order in the recruitment of four coactivators, PPARγ (human PPARγ-LBD; [13]) | EC50 (human PPARα-LBD; [18]) [µM] | EC50 (human PPARα-LBD; [19]) [µM] | EC50 (human PPARα-LBD; [20]) [µM] | EC50 (human PPARα-LBD; [21]) [µM] | Compound | also measured
30.8 | 68.5 | 19.9 | 44 | 36 | 30.8 | 9.11 | 29 | CBP>PGC=SRC=TRAP | 61.6 | 45.6 | 41.6 | 36.2 | PGC>TRAP>CBP>SRC | effective | PGC=CBP=TRAP>SRC | 2.77 | 6.44 | 4.98 | 4.28 | CSc1ccc(C(=O)/C=C/c2cc(C)c(OC(C)(C)C(=O)O)c(C)c2)cc1 [Elafibranor, elafibranor] | EC50 (human PPARγ-LBD; [14]): > 10 µM; EC50 (human PPARγ-LBD; [15]): > 10 µM; EC50 (human PPARγ-LBD; [16]): > 30 µM; EC50 (human PPARγ-LBD; [17]): > 10 µM
0.45 | 0.16 | 0.6 | 2.76 | 73 | 82.5 | 42 | 64.8 | CBP>TRAP>PGC>SRC | 80.8 | 36.8 | 78.3 | 86 | No activation |  | PGC=CBP=TRAP>SRC | 3.41 | 8.02 | 11.1 | 7.33 | CC(C)(Oc1ccc(C(=O)c2ccc(Cl)cc2)cc1)C(=O)O [Fenofibric acid, fenofibric acid] | EC50 (human PPARδ-LBD; [22]): > 500 µM; EC50 (human PPARδ-LBD; [23]): > 500 µM; EC50 (human PPARδ-LBD; [24]): > 500 µM; EC50 (human PPARδ-LBD; [25]): > 500 µM
101 | 103 | 57.5 | 86.5 | 83.3 | 70.5 | 46.1 | 60.4 | CBP>TRAP>PGC=SRC | 71.7 | 41.8 | 49.3 | 64.7 | PGC>CBP>TRAP>SRC | effective | CBP>PGC>TRAP>SRC | 4.02 | 9.95 | 10.4 | 7.31 | O=C(O)CCCc1cc2cc(Cl)ccc2n1S(=O)(=O)c1ccc2ncsc2c1 [Lanifibranor, lanifibranor] | EC50 (human PPARδ-LBD; [22]): 3.72 µM; EC50 (human PPARδ-LBD; [23]): 2.46 µM; EC50 (human PPARδ-LBD; [24]): 6.97 µM; EC50 (human PPARδ-LBD; [25]): 4.41 µM; EC50 (human PPARγ-LBD; [14]): 2.64 µM; EC50 (human PPARγ-LBD; [15]): 4.31 µM; EC50 (human PPARγ-LBD; [16]): 7.69 µM; EC50 (human PPARγ-LBD; [17]): 5.07 µM

Compound | Emax (human PPARδ-LBD; [1]) [%] | Emax (human PPARδ-LBD; [2]) [%] | Emax (human PPARδ-LBD; [3]) [%] | Emax (human PPARδ-LBD; [4]) [%] | Emax (human PPARγ-LBD; [5]) [%] | Emax (human PPARγ-LBD; [6]) [%] | Emax (human PPARγ-LBD; [7]) [%] | Emax (human PPARγ-LBD; [8]) [%] | Approximate potency order in the recruitment of four coactivators, PPARα (human PPARα-LBD) | Emax (human PPARα-LBD; [9]) [%] | Emax (human PPARα-LBD; [10]) [%] | Emax (human PPARα-LBD; [11]) [%] | Emax (human PPARα-LBD; [12]) [%] | Approximate potency order in the recruitment of four coactivators, PPARδ (human PPARδ-LBD; [13]) | recruitment of coactivators to PPARδ-LBD (in words) (human PPARδ-LBD; four coactivator peptides) | Approximate potency order in the recruitment of four coactivators, PPARγ (human PPARγ-LBD; [13]) | EC50 (human PPARα-LBD; [18]) [µM] | EC50 (human PPARα-LBD; [19]) [µM] | EC50 (human PPARα-LBD; [20]) [µM] | EC50 (human PPARα-LBD; [21]) [µM] | also measured
CC(C)(Oc1ccc(CCNC(=O)c2ccc(Cl)cc2)cc1)C(=O)O [Bezafibrate, bezafibrate] | 64.6 | 90.3 | 50 | 85.8 | 68.7 | 68.6 | 34 | 55.7 | CBP>PGC=TRAP>SRC | 79.2 | 74.5 | 72.4 | 76.4 |  |  |  |  |  |  |  | Approximate potency order in the recruitment of four coactivators, PPARδ (human PPARδ-LBD): TRAP>PGC>CBP>SRC; recruitment of coactivators to PPARδ-LBD (in words) (human PPARδ-LBD): recruited all four coactivators; EC50 (human PPARδ-LBD; PPARδ CBP EC50): 58.5 µM; EC50 (human PPARδ-LBD; PPARδ TRAP220 EC50): 24.5 µM; EC50 (human PPARδ-LBD; read-out: PPARδ PGC1α EC50): 35.8 µM; EC50 (human PPARδ-LBD; read-out: PPARδ SRC1 EC50): 101 µM; Approximate potency order in the recruitment of four coactivators, PPARγ (human PPARγ-LBD): PGC=CBP=TRAP>SRC; recruitment of coactivators to PPARγ-LBD (in words) (human PPARγ-LBD): recruited all four coactivators; EC50 (human PPARγ-LBD; PPARγ CBP EC50): 36.3 µM; EC50 (human PPARγ-LBD; PPARγ PGC1α EC50): 41.8 µM; EC50 (human PPARγ-LBD; PPARγ SRC1 EC50): 108 µM; EC50 (human PPARγ-LBD; PPARγ TRAP220 EC50): 24.5 µM; extent of recruitment of all four coactivators to PPARα-LBD (human PPARα-LBD): 72.4–79.2%; recruitment of coactivators to PPARα-LBD (in words) (human PPARα-LBD; four coactivator peptides): recruited all four coactivators
